From patent US20100168085A1, “Dopamine and agonists and antagonists thereof for modulation of suppressive activity of CD4+CD25+ regulatory T cells” (YESA RESEARCH AND DEVELOPMENT CO. LTD. at the Weizmann …, priority 2003, published 2010)
Marks after values point to notes of the source that are not given here.

How the values were obtained:
[1] = system: TGF-β1 transcripts in Treg; conditions: after dopamine treatment
From the text: (xx) Polymerase chain reaction (PCR). Total RNA was purified with the RNeasy Mini Kit (Qiagen, Germantown, Md.) and transcribed into cDNA using poly dT primers. For PCR the following primers were used: […]
Because the suppressive effect of Treg on Teff is partly due to transforming growth factor (TGF)-β1 (Nakamura et al., 2001), we measured whether exposure of Treg to dopamine affects the level of TGF-β1 expression.

IL-10 production by Treg = conditions: 10^−5 M; 24 h, 48 h and 72 h
Procedure: (x) Enzyme-linked immunosorbent assay. Treg or Teff (0.5×10^6 cells/ml) were cultured for 48 h in the presence of anti-CD3 and anti-CD28. After 48 h the cells were centrifuged and their supernatants were collected and sampled. Concentrations of IL-2 in the samples were determined by the use of sandwich enzyme-linked immunosorbent assay (ELISA) kits (R&D Systems, Minneapolis, Minn.). For detection of secreted IL-10 cells were centrifuged every 24 h and replaced with a fresh medium. Supernatants obtained from cells after 24, 48 and 72 h in culture were subjected to ELISA kit (Diaclone Research, Fleming, France). The plates were developed using a 3,3′,5,5′-tetramethyl-benzidine liquid substrate system (Sigma, St. Louis, Mo.). The reaction was stopped by adding 1M H3PO4. Results for each experiment were calculated as the amount of secreted cytokine per 1 ml of sample, after subtraction of the background levels of the medium.

[2] = system: adhesion of Treg and Teff to chondroitin sulfate proteoglycans (CSPG); test: T cell adhesion to CSPG; format: cell-based, mouse
Procedure: (xiii) T cell adhesion. Adhesion of activated CD4^+CD25^+ and CD4^+CD25^− T cells to CSPG was analyzed as previously described (23). Briefly, flat-bottomed microtiter (96-well) plates were pre-coated with CSPG (1 μg/well, 40 min, 37° C.). ^51Cr-labeled T cells were left untreated or were pre-incubated (30 min, 37° C.) with dopamine or the specified agonist or antagonist (10^−5M). The cells (10^5 cells in 100 μL of RPMI containing 0.1% BSA) were then added to the CSPG-coated wells, incubated (30 min, 37° C.), and washed. Adherent cells were lysed and the resulting supernatants were removed and counted in a γ-counter. Results were expressed as the mean percentage of the total population before adhesion of bound T cells from quadruplicate wells for each experimental group.
One of the main features of T cells is their ability to migrate to tissues in need of rescue or repair [such as diseased or damaged CNS (Hickey, 1999; Flugel et al., 2001). […] We therefore incubated Treg with dopamine for 2 h and then examined their adhesion to chondroitin sulfate proteoglycans (CSPG), extracellular matrix proteins often associated with injured tissues (Jones et al., 2003).
(§1) To verify that the effect of dopamine on adhesion of Treg is exerted through the ERK1/2 pathway, we incubated Treg with the ERK1/2 signaling pathway inhibitor PD98059 before carrying out the adhesion assay. […] Since interaction of T cells with CSPG is mediated in part by the CD44 receptor (Henke et al., 1996), and in light of the known dependence of CD44 expression on the ERK signaling pathway, it was conceivable that dopamine might affect the expression of CD44 in Treg.

[3] = system: CD44 expression in Treg and Teff
Procedure: as §1

[4] = system: LFA-1, I-CAM, and V-CAM in Treg; conditions: data not shown
Procedure: as §1

[5] = system: mice, glutamate-induced retinal ganglion cell death; test: Intravitreal glutamate toxicity, retinal ganglion cell survival; format: in vivo, mouse
Procedure: (iii) Intravitreal glutamate injection. The right eyes of anesthetized mice were punctured with a 27-gauge needle in the upper part of the sclera, and a 10-μL Hamilton syringe with a 30-gauge needle was inserted as far as the vitreal body. A total volume of 1 μl, of L-glutamate (400 nmol) dissolved in saline was injected into the eye.
(iv) Retrograde labeling of retinal ganglion cells. Mice were anesthetized and placed in a stereotactic device. The skull was exposed and kept dry and clean. The bregma was identified and marked. The designated point of injection was at a depth of 2 mm from the brain surface, 2.92 mm behind the bregma in the anteroposterior axis and 0.5 mm lateral to the midline. A window was drilled in the scalp above the designated coordinates in the right and left hemispheres. The neurotracer dye FluoroGold (5% solution in saline; Fluorochrome, Denver, Colo.) was applied (1 μL, at a rate of 0.5 μL/min in each hemisphere) using a Hamilton syringe, and the skin over the wound was sutured.
(xxi) Assessment of mouse retinal ganglion cell survival. Mice were given a lethal dose of pentobarbitone (170 mg/kg). Their eyes were enucleated and the retinas were detached and prepared as flattened whole mounts in 4% paraformaldehyde solution. Labeled cells from 4-6 selected fields of identical size (0.7 mm^2) were counted. The selected fields were located at approximately the same distance from the optic disk (0.3 mm) to overcome the variation in RGC density as a function of distance from the optic disk. Fields were counted under the fluorescence microscope (magnification ×800) by observers blinded to the identity of the retinas. The average number of RGCs per field in each retina was calculated.
Injection of glutamate into the eyes of adult mice causes retinal ganglion cell death that is measurable 1 week after the injection (Mizrahi et al., 2002; Schori et al., 2001a; Katayama et al., 1990). We injected Balb/c mice intraperitoneally (i.p.) with the dopamine, or its specific D1-type agonist SKF-38393 (3.3 mg/kg), or its specific D1-type antagonist SCH-23390 (3 mg/kg), immediately after their exposure to glutamate toxicity. We also injected SCID Balb/c mice with SKF-38393 (3.3 mg/kg) immediately after glutamate intoxication.
Immediately after glutamate intoxication mice were systemically injected with the indicated drugs. Neuronal survival was determined ten days later (see Materials and Methods). The results are expressed by changes (in percentage) in neuronal survival in treated mice relative to untreated mice. Each value represents a mean±SEM of a group of at least 5 animals, and each experiment was performed at least twice, independently. Asterisks (***, P<0.001; **, P<0.01) indicate statistical significance of the presented data from a single experiment using a Student's T-test statistical analysis. (NT—not tested; ns—no statistical significance).

solid tumor cells M2R = conditions: Treg 2×10^6 cells exposed to dopamine 10^−5 M
From the text: In another experiment, mice (n=10) were inoculated with solid tumor cells M2R, and received an immediate injection of Treg (2×10^6 cells) with and without exposure to dopamine (10^−5M). Control animals (n=10) received an injection of vehicle (PBS) following cancer cells inoculation.

With `NCCc1ccc(O)c(O)c1` [dopamine, 3,4-dihydroxyphenethylamine] as the molecule, how does the “Transcripts encoding TGF-β1 in Treg” value [1] read?
The value was “decreased”.

What about the “Amount of IL-10 in media of Treg” value (IL-10 production by Treg) of the same molecule?
The value was “significant decrease”.

What about the “Adhesion of Teff to CSPG” value [2] of the same molecule?
Its value is “slight, nonsignificant effect”.

And the “Adhesion of Treg to CSPG” value ([2]; dopamine 10^−9-10^−5 M, concentration-dependent, agonist 10^−5 M)?
Its value is “significantly decreased”.

And the “CD44 immunoreactivity in Treg” value ([3]; activated 24 h, 2 h with dopamine)?
Its value is “decreased CD44 immunoreactivity”.

What about the “CD44 expression in Teff” value ([3]; after incubation with dopamine) of the same molecule?
The value was “not affected”.

And the “LFA-1, I-CAM, V-CAM in Treg” value [4]?
The value was “did not show any dopamine-related changes”.

What about the “Increase in neuronal survival relative to PBS-treated glutamate-injected controls” value ([5]; Balb/c, single i.p. injection, dopamine 0.4 mg/kg, SKF-38393 3.3 mg/kg) of the same molecule?
The value was 18±2.5%.

And the “Changes in neuronal survival in treated relative to untreated mice (mean±SEM)” value ([5]; Wild type mice, systemic injection immediately after glutamate intoxication)?
The value was 18 ± 2.5*** percentage.

And the “Tumor development in mice injected with Treg exposed to dopamine” value (solid tumor cells M2R)?
Its value is “did not differ from control mice”.
